Reference: the METLIN SMRT retention time set (Domingo-Almenara et al. 2019)

Test: gradient 5% acetonitrile 3 min, to 50% in 2 min, to 85% in 15 min, held 3 min, 100 µL/min
Details: column: Zorbax Extend-C18 2.1 x 50 mm; eluents: water / acetonitrile, 0.1% formic acid
Outline: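 Over 3 months, pure standards in mixtures of ~100 molecules were run by HPLC coupled to a quadrupole time-of-flight mass spectrometer in positive and negative ionization mode. The column was a Zorbax Extend-C18 (2.1 × 50 mm, 1.8 μm) at 100 μL/min, eluted with water and acetonitrile each holding 0.1% formic acid, with 40 μL dead and 900 μL dwell volumes. Retention time was determined from adduct peaks chosen by software and checked manually.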

| RP-LC retention time | Structure (SMILES) |
| --- | --- |
| 665 s | O=C(c1ccoc1)N1CCC(c2noc(-c3ccncc3)n2)C1 (stereo not given) |
| 1180 s | Cc1ccc(-c2noc(-c3nc(Cc4ccc(F)cc4)no3)n2)cc1 |
| 730 s | Cc1nnc2cc(N3CCN(S(=O)(=O)c4cccc(C(F)(F)F)c4)CC3)cnn12 |
| 687 s | O=C(NCc1ccco1)C1CCCN(c2nnc3ccc(Cl)cn23)C1 (stereo not given) |
| 662 s | COc1cccc(NC(=O)NCCc2cn(C)c3ncccc23)c1 |
| 735 s | COC(=O)c1ncn2c1C(=O)N(c1ccc(C)c(C)c1)C(C)(C(=O)NCc1ccccc1)C2 (stereo not given) |
| 579 s | CSc1ccccc1NC(=O)C(=O)NCC1CCN(Cc2ccco2)CC1 |
| 719 s | CC(=O)Nc1cccc2c(C(=O)NC3CCCC3)ccnc12 |
| 694 s | CSc1ccc(Cc2nnc(NC(=O)c3nn(C)cc3C)o2)cc1 |
| 889 s | O=C(O)c1cc(-c2ccccn2)nc2ccc(Br)cc12 |
| 637 s | O=C(NCCCN1CCCC1=O)c1ccc(-n2nnc3cccnc32)cc1 |
| 688 s | COc1ccc(C(=O)CC2(O)C(=O)Nc3c(C)cccc32)cc1OC (stereo not given) |
| 590 s | O=C(c1ccccc1Cl)N1CCN(c2cnn3c(C4CC4)nnc3c2)CC1 |
| 688 s | Cc1ccccc1NC(=O)C1CCc2nc(N3CCCCC3)ncc2C1 (stereo not given) |
| 571 s | CC(=O)N1CC(c2nnc(C(C)C)o2)C2(CCOCC2)C1 (stereo not given) |
| 590 s | CCC(=O)NCc1nc2c(n1CC)CN(S(=O)(=O)c1cc(C)ccc1C)CC2 |
| 648 s | CC(C(=O)NCCCN1CCOCC1)C1CCN(C(=O)c2cc3cc(Cl)ccc3[nH]2)CC1 (stereo not given) |
| 1110 s | Cc1ccc(NC(=O)N2CCCC2c2nc(-c3cccc(Cl)c3)no2)cc1 (stereo not given) |
| 594 s | Cc1cc(N2CCN(C)CC2)nc2ccc(NC(=O)Nc3ccc(F)cc3F)cc12 |

| RP-LC retention time | Structure (SMILES) |
| --- | --- |
| 1080 s | CCCN(c1ccc(F)cc1)c1nc(C(=O)OCC)nc2ccccc12 |
| 944 s | COc1ccccc1NC(=O)Cn1nc2cc(-c3ccccc3)nc(C)n2c1=O |
| 981 s | Fc1ccccc1-c1nn2c(CSc3ccccc3)nnc2s1 |
| 580 s | COc1ccccc1-c1cc2nc(C)cc(N3CCN(c4ccccn4)CC3)n2n1 |
| 618 s | COCCc1noc(COC2CCN(C(=O)C3CCCO3)CC2)n1 (stereo not given) |
| 594 s | O=C(NCCCn1ccnc1)C1CC(=O)N(CCc2c[nH]c3ccc(F)cc23)C1 (stereo not given) |
| 966 s | CCOc1ccc(-c2noc(Cn3nc4ccc(-c5ccc(C)cc5)nn4c3=O)n2)cc1OC |
| 871 s | CCC(C)Sc1nnc(NC(=O)C2CCN(C(=O)c3ccccc3F)CC2)s1 (stereo not given) |
| 775 s | CO[C@H]1C(=O)N(C(C)C)[C@H]1C1CCN(S(=O)(=O)c2cccc3cccnc23)CC1 |
| 947 s | COc1ccc(-n2c(=O)c(C(=O)NCC3CCCO3)c(O)c3cccnc32)cc1 (stereo not given) |
| 933 s | O=S(=O)(Nc1cccn2c(C3CCC3)nnc12)c1ccc2c(c1)CCCC2 |
| 706 s | Cc1c(Cl)cccc1NC(=O)NCC(c1cccnc1)c1c[nH]c2ccccc12 (stereo not given) |
| 863 s | COCCCNC(=O)C1CCCN(c2ncc(-c3cccc(F)c3)cn2)C1 (stereo not given) |
| 804 s | CC(=O)c1ccc(Nc2ncnc3c2cnn3-c2ccccc2Cl)cc1 |
| 1300 s | Cc1ccc(C2Cn3nnc(-c4nc(-c5ccc(F)cc5)no4)c3CO2)c(C)c1 (stereo not given) |
| 701 s | COc1ccc2oc(-c3ccncc3)cc(=O)c2c1 |
| 686 s | CCC(C)NC(=O)C1CC(=O)N(c2ccc3c(c2)CCN3C(=O)C2CC2)C1 (stereo not given) |
| 1000 s | COC(=O)c1ccc(Cl)cc1NC(=O)N1CCC2(CC1)NC(=O)c1ccccc1O2 |

Further lines, the compound ahead of its results:

| Structure (SMILES) | RP-LC retention time |
| --- | --- |
| CC(C)NC(=O)c1cc2nc(N(C)C)n(-c3ccccc3)c2s1 | 885 s |
| O=C(CN1CCN(c2ccccc2)CC1)Nc1nc(-c2ccccc2)cs1 | 740 s |
| CCc1ccc(NC(=O)N2CCC(n3cnc4c(Cl)cccc4c3=O)CC2)cc1 | 890 s |
| O=C(NC1CCCc2ccccc21)C1CCN(C(=O)c2cccn2-c2cccnc2)CC1 (stereo not given) | 742 s |
| Cc1cccc(CN2C[C@@H]3C(=O)N(CCCN4CCCC4=O)C(=O)[C@@H]3C2)c1 | 589 s |
| CCNc1cc(N2CCCC(CCC(=O)NC(C)c3cccs3)C2)ncn1 (stereo not given) | 661 s |
| CCNc1nc(NC)nc(-n2cnc(SC)n2)n1 | 674 s |
| CC(C)n1c(=O)oc2cc(-c3noc(-c4ccccc4)n3)ccc21 | 1060 s |
| O=C(NCc1ccc2c(c1)OCO2)C1CCN(C(=O)c2cc(-c3ccncc3)n[nH]2)CC1 | 579 s |
| Cc1ccc(C)c(N2CCN(c3ccc4cc(S(=O)(=O)N5CCCCC5C)ccc4n3)CC2)c1 (stereo not given) | 1340 s |
| O=C(c1cccs1)N1CCc2cc(-c3ccno3)ccc21 | 887 s |
| CCN(CC)CCCNc1ncnc2c1cnn2-c1ccc(C)c(C)c1 | 663 s |
| Cc1ccccc1Nc1c(-c2ccc(N3CCOCC3)cc2)nc2ccc(Cl)cn12 | 805 s |
| O=C(O)c1nnn(-c2ccccc2)c1-c1ccccn1 | 657 s |
| CCCNC(=O)C1CCN(c2ccc(SCC(=O)Nc3ccc(OC)c(OC)c3)nn2)CC1 | 595 s |
| COc1ccccc1CNC(=O)Cc1nnc(-c2ccccn2)o1 | 671 s |
| CCCN1CCN(c2ccc(NC(=O)C3CCC3)c(C(=O)O)c2)CC1 | 561 s |
| Cc1ccc(CNC(=O)N2CCCC(Cn3cnc4cccnc43)C2)cc1 (stereo not given) | 676 s |
| Cc1cnc(Nc2ccc(OCCN3CCCC3)cc2)nc1Nc1cccc(S(=O)(=O)NC(C)(C)C)c1 | 619 s |
| CN(C)c1ccc(-c2nc3cnccn3c2NC2CCCC2)cc1 | 764 s |
| Cc1cccc(C)c1NC(=O)N1CCC(c2cc(=O)n3nccc3n2C)CC1 | 635 s |
| O=C(CCc1cn(Cc2ccccc2F)c2ccccc12)N1CCN(c2ccccn2)CC1 | 737 s |
| CCc1nc2c(NC(=O)c3sccc3C)cccn2n1 | 831 s |
| COc1ccc(C2(C(=O)N3CCCC(CN4CCCC4)CC3)CC2)cc1 (stereo not given) | 618 s |
| Cc1ccc(F)cc1NS(=O)(=O)c1cc(-c2[nH]ncc2C(=O)N2CCOCC2)oc1C | 704 s |
| COc1ccc(Cl)c2c(=O)c3c([nH]c12)CCN(CC(=O)Nc1ccc(F)c(F)c1)C3 | 634 s |
| COc1cc(C(=O)Nc2cccc(-c3cn4ccsc4n3)c2)c([N+](=O)[O-])cc1OC | 658 s |

| Structure (SMILES) | RP-LC retention time |
| --- | --- |
| Cc1cccc(NC(=O)C2CCN(S(=O)(=O)c3cc(C(=O)N4CCC(C)CC4)n(C)c3)CC2)n1 | 722 s |
| c1ccc(-c2csc(Nc3ncccn3)n2)nc1 | 594 s |
| CNC(=O)C1CCN(Cc2cc3ccccc3n2Cc2ccc(C)cc2)CC1 | 693 s |
| Cc1ccc(Nc2c(-c3ccc([N+](=O)[O-])cc3)nc3ccc(C)cn23)cc1 | 838 s |
| Cc1cc(NC(=O)c2csc(-c3ccc(N4CCCC4)nc3)n2)ccc1F | 795 s |
| Cc1ccc(CN2CC[C@]3(CO)CN(Cc4ccccc4)C[C@@H]3C2)cc1C | 570 s |
| COCCNC(=O)NC1CCN(c2nc3cccnc3n(Cc3ccccc3)c2=O)CC1 | 806 s |
| Cc1noc(C2CN(C(=O)NC(C)(C)C)CC23CCOCC3)n1 (stereo not given) | 670 s |
| Cc1ccc2c(c1)C(=O)NC1(CCN(C(=O)Cc3ccccc3Cl)CC1)N2C | 841 s |
| CC(C)n1c(N2CCN(C(=O)c3ccc(F)cc3)CC2)cc(=O)n(C(C)C)c1=O | 792 s |
| CN(C)c1ccc2c(c1)CN(C(=O)C1CC1)CCO2 | 574 s |
| COc1ccccc1NC(=O)N1CC(C)Oc2ccc(C)cc21 (stereo not given) | 1130 s |
| O=C(CCc1ccccc1)Nc1nnc(SCC(=O)c2ccccc2)s1 | 892 s |
| Cc1noc(-c2cc(=O)n(CC(=O)NCc3cccs3)c3ccccc23)n1 | 795 s |
| O=C(c1ccc(Cl)s1)N1CCC(N(C(=O)C2CC2)C2CCOCC2)CC1 | 773 s |
| COc1cccc(N2CCN(c3ccnc(SCC(=O)NCCCc4ccccc4)n3)CC2)c1 | 804 s |
| O=C(NC1CCCCCC1)C1CCN(c2ccncc2)CC1 | 610 s |
| CCCn1cc(CCNS(=O)(=O)c2ccccc2CC)c2cccnc21 | 923 s |
| COc1cc(Cl)ccc1C(=O)Nc1cc(S(=O)(=O)N2CCSCC2)sc1C | 1090 s |
| COc1ccc(-n2ncc3c(=O)n(Cc4nc(-c5ccc(F)cc5)no4)cnc32)cc1 | 1030 s |
| Cc1c(C(=O)Nc2c3c(nn2C(C)(C)C)CSC3)cccc1[N+](=O)[O-] | 814 s |
| COc1ccc(NC(=O)Nc2c(-c3ccc(F)cc3)nc3ccccn23)cc1F | 668 s |
| O=c1c2ccccc2ncn1Cc1noc(-c2cccc(Br)c2)n1 | 914 s |
| O=C1CCCN1Cc1noc(-c2cccc(Cl)c2)n1 | 814 s |
| Cc1c(C(=O)N2CCN(C)CC2)cnn1-c1cc(-c2nc(C3CC3)no2)ccn1 | 630 s |
| O=S(=O)(c1ccccc1)c1[nH]c(-c2ccccc2)nc1SCc1ccncc1 | 651 s |
